# Reference: article PMC5847526, “Inhibition of neuronal FLT3 receptor tyrosine kinase alleviates peripheral neuropathic pain in mice” (Nature Communications, 2018)
# Key:
# [1] = target: Interleukin-1 receptor-associated kinase 4 (IRAK4) (Homo sapiens, UniProt Q9NWZ3); test: kinase selectivity panel, inhibition of staurosporine binding at a single concentration ([…])
# [2] = target: T1, fms-like tyrosine kinase 3 receptor (FLT3) (Homo sapiens, UniProt P36888); test: trFRET inhibition of Red-FL binding to SNAP-FLT3 on HEK293 cells; FL-induced FLT3 phosphorylation in RS4-11 cells (IC50 […]); assay type: cell-based
# T1 construct: SNAP-FLT3 (Lumi4-Tb labelled) in HEK293 cells; endogenous FLT3 in RS4-11 cells
# T1 sequence (P36888 27-993): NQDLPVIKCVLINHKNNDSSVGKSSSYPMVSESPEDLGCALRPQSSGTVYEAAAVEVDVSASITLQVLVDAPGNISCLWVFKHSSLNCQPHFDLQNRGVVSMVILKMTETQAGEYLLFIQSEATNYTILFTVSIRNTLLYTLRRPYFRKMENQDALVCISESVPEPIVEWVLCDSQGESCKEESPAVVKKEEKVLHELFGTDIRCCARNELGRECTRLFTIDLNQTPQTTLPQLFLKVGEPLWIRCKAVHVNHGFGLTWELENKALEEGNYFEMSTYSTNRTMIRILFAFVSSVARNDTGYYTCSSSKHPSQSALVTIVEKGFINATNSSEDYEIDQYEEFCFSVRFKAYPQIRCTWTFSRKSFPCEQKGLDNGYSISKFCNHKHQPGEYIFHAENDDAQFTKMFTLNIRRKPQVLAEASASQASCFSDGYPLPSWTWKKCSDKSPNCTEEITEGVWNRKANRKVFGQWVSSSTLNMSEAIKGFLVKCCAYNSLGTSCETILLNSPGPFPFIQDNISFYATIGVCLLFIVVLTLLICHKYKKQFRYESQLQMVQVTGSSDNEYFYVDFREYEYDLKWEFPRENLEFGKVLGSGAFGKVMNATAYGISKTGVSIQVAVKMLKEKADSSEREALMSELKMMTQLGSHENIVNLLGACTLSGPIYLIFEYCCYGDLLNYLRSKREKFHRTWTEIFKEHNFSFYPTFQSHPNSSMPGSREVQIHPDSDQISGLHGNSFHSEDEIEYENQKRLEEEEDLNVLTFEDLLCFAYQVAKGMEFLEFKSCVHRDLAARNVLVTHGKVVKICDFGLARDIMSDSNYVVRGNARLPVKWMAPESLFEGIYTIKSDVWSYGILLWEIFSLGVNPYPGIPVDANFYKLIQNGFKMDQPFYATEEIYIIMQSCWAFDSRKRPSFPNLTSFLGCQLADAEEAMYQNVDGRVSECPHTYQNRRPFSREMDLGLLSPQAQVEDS
# FGFR3 kinase = FGFR3 kinase (Homo sapiens, UniProt P22607); test: biochemical; design: ExpresS Diversity kinase profile (Eurofins Cerep P10), per cent inhibition; conditions: read-out: Inhibition of reference binding (Table 4)
# MAPKAPK2 = MAPKAPK2 (Homo sapiens, UniProt P49137); test: biochemical; design: ExpresS Diversity kinase profile (Eurofins Cerep P10), per cent inhibition; conditions: read-out: Inhibition of reference binding (Table 4)
# Sequence of MAPKAPK2 (P49137 whole entry): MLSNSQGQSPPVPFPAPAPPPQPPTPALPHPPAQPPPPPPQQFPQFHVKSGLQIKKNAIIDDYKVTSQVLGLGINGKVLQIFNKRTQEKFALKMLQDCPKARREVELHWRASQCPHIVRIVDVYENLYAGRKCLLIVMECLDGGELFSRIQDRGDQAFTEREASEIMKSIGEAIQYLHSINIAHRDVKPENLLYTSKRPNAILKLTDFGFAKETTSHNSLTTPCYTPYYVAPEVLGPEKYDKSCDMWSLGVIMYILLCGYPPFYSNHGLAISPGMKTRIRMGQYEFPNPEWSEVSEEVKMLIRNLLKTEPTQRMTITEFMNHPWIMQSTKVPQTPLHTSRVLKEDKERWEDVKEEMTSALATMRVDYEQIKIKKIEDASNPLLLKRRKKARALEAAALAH
# PDK1 = target: T2, PDK1 (Homo sapiens, UniProt O15530); test: biochemical; design: ExpresS Diversity kinase profile (Eurofins Cerep P10), per cent inhibition; conditions: read-out: Inhibition of reference binding (Table 4)
# T2 construct: gene PDPK1
# SIK = target: T3, SIK (Homo sapiens, UniProt P57059); test: biochemical; design: ExpresS Diversity kinase profile (Eurofins Cerep P10), per cent inhibition; conditions: read-out: Inhibition of reference binding (Table 4)
# T3 construct: gene SIK1
# ErbB2-ErbB3 = ErbB2-ErbB3 (Homo sapiens, UniProt P04626+P21860); test: cell-based; design: PathHunter eXpress functional assay (DiscoverX tkMAX), inhibition of reference ligand response; conditions: read-out: % Inhibition of reference binding (Table 3)
# DDR1 = DDR1 (Homo sapiens, UniProt Q08345); test: cell-based; design: PathHunter eXpress functional assay (DiscoverX tkMAX), inhibition of reference ligand response; conditions: read-out: % Inhibition of reference binding (Table 3)
# EphA5 = EphA5 (Homo sapiens, UniProt P54756); test: cell-based; design: PathHunter eXpress functional assay (DiscoverX tkMAX), inhibition of reference ligand response; conditions: read-out: % Inhibition of reference binding (Table 3)
# EphA7 = EphA7 (Homo sapiens, UniProt Q15375); test: cell-based; design: PathHunter eXpress functional assay (DiscoverX tkMAX), inhibition of reference ligand response; conditions: read-out: % Inhibition of reference binding (Table 3)
# EphB2 = EphB2 (Homo sapiens, UniProt P29323); test: cell-based; design: PathHunter eXpress functional assay (DiscoverX tkMAX), inhibition of reference ligand response; conditions: read-out: % Inhibition of reference binding (Table 3)
# Sequence of EphB2 (P29323 whole entry): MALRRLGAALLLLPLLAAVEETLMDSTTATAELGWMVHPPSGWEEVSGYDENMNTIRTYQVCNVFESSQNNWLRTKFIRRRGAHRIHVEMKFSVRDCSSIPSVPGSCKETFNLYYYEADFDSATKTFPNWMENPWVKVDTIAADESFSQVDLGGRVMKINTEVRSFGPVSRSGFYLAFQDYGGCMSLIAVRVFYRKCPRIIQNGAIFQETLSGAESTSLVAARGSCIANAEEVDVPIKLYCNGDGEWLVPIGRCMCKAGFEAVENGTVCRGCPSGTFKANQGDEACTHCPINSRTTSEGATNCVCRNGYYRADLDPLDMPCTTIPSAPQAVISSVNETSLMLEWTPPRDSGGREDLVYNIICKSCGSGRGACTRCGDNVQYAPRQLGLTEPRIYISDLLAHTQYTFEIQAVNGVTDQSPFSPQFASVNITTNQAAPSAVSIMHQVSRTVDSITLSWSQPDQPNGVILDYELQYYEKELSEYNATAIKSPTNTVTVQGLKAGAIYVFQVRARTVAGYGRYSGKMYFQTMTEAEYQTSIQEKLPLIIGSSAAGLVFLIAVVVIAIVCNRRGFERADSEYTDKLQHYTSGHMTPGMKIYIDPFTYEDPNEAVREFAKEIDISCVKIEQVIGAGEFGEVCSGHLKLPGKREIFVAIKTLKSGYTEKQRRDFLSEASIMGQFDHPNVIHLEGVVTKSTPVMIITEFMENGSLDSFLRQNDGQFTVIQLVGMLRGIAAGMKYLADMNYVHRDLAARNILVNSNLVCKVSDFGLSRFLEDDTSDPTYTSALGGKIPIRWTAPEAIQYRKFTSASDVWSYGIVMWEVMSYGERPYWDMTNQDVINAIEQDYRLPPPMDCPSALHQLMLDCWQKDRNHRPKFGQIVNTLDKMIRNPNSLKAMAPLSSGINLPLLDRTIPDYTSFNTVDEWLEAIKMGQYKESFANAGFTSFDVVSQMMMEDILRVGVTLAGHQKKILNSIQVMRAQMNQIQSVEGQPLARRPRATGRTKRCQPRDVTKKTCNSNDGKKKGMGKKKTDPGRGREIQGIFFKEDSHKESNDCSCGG
# EphB3 = EphB3 (Homo sapiens, UniProt P54753); test: cell-based; design: PathHunter eXpress functional assay (DiscoverX tkMAX), inhibition of reference ligand response; conditions: read-out: % Inhibition of reference binding (Table 3)
# EphB4 = EphB4 (Homo sapiens, UniProt P54760); test: cell-based; design: PathHunter eXpress functional assay (DiscoverX tkMAX), inhibition of reference ligand response; conditions: read-out: % Inhibition of reference binding (Table 3)
# ErbB1 = target: T4, ErbB1 (Homo sapiens, UniProt P00533); test: cell-based; design: PathHunter eXpress functional assay (DiscoverX tkMAX), inhibition of reference ligand response; conditions: read-out: % Inhibition of reference binding (Table 3)
# T4 construct: gene EGFR
# ErbB4 = ErbB4 (Homo sapiens, UniProt Q15303); test: cell-based; design: PathHunter eXpress functional assay (DiscoverX tkMAX), inhibition of reference ligand response; conditions: read-out: % Inhibition of reference binding (Table 3)
# Sequence of ErbB4 (Q15303 whole entry): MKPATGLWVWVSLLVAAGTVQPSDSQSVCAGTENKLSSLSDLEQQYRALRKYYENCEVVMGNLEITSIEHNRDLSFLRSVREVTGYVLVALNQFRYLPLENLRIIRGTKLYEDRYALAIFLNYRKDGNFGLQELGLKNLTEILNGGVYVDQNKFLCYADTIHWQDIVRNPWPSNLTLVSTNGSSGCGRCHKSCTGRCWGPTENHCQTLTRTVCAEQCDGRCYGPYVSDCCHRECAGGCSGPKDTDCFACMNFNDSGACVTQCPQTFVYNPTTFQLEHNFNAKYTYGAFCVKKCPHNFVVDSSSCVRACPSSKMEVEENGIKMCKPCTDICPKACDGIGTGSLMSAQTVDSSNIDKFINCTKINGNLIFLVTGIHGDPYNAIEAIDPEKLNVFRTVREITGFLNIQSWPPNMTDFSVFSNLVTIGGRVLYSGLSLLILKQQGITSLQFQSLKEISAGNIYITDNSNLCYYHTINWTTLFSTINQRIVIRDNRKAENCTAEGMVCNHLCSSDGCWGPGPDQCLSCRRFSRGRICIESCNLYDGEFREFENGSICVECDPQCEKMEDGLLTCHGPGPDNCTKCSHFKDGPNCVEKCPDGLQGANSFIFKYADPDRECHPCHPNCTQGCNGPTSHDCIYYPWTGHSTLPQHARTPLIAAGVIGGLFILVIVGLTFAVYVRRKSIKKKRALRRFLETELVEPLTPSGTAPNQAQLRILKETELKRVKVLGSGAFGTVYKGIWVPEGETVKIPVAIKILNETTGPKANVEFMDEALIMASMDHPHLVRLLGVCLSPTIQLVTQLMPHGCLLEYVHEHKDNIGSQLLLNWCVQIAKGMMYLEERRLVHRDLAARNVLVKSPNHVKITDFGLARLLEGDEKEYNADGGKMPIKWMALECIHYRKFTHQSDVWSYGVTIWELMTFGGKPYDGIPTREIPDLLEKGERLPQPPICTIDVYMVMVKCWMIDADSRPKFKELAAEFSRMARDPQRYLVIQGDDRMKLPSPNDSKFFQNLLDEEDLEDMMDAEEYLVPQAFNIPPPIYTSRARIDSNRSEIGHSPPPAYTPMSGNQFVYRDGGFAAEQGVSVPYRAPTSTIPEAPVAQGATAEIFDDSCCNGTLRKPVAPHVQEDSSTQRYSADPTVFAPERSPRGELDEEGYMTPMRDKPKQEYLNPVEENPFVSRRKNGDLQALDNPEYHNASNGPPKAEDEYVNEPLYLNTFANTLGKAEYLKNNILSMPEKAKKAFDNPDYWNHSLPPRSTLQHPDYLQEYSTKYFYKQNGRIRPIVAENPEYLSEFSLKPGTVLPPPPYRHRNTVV
# FLT4 = FLT4 (Homo sapiens, UniProt P35916); test: cell-based; design: PathHunter eXpress functional assay (DiscoverX tkMAX), inhibition of reference ligand response; conditions: read-out: % Inhibition of reference binding (Table 3)
# Sequence of FLT4 (P35916 whole entry): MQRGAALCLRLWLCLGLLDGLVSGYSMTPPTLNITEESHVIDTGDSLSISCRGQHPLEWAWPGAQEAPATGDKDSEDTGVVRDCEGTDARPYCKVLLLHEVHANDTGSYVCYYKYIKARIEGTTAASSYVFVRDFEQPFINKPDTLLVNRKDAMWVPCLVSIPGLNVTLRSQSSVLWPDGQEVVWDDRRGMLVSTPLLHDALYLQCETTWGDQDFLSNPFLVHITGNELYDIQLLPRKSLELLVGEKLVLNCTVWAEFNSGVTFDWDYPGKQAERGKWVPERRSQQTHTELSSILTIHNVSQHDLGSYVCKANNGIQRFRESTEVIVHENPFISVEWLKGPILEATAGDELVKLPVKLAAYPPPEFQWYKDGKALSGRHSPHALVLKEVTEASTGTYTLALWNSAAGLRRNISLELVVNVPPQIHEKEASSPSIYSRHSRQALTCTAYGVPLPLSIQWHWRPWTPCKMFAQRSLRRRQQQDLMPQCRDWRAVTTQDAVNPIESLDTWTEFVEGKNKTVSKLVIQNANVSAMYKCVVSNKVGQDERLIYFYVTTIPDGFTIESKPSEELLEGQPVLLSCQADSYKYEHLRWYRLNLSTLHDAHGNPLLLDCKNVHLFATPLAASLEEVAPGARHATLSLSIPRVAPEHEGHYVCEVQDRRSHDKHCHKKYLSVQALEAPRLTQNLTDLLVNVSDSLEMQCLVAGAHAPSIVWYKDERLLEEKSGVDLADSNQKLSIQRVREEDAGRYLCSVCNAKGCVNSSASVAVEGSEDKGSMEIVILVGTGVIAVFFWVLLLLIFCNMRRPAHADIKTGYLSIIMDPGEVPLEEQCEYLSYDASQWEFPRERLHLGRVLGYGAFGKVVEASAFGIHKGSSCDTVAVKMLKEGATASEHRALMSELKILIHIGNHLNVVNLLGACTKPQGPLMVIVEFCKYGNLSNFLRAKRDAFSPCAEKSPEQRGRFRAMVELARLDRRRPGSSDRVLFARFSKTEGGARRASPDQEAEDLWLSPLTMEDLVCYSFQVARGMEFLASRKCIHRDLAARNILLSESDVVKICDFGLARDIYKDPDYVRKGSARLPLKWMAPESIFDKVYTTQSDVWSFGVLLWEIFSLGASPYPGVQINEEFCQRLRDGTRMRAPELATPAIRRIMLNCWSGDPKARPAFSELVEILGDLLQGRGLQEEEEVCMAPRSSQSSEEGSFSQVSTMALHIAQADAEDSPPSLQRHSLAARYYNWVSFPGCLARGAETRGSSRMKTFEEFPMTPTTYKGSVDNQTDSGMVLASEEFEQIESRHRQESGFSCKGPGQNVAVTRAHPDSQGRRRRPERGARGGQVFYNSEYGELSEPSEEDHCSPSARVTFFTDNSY
# IGF1R = IGF1R (Homo sapiens, UniProt P08069); test: cell-based; design: PathHunter eXpress functional assay (DiscoverX tkMAX), inhibition of reference ligand response; conditions: read-out: % Inhibition of reference binding (Table 3)
# INSRb = target: T5, INSRb (Homo sapiens, UniProt P06213); test: cell-based; design: PathHunter eXpress functional assay (DiscoverX tkMAX), inhibition of reference ligand response; conditions: read-out: % Inhibition of reference binding (Table 3)
# T5 construct: gene INSR; isoform b
# KDR = KDR (Homo sapiens, UniProt P35968); test: cell-based; design: PathHunter eXpress functional assay (DiscoverX tkMAX), inhibition of reference ligand response; conditions: read-out: % Inhibition of reference binding (Table 3)
# PDGFRa = PDGFRa (Homo sapiens, UniProt P16234); test: cell-based; design: PathHunter eXpress functional assay (DiscoverX tkMAX), inhibition of reference ligand response; conditions: read-out: % Inhibition of reference binding (Table 3)
# PDGFRb = PDGFRb (Homo sapiens, UniProt P09619); test: cell-based; design: PathHunter eXpress functional assay (DiscoverX tkMAX), inhibition of reference ligand response; conditions: read-out: % Inhibition of reference binding (Table 3)
# c-KIT = c-KIT (Homo sapiens, UniProt P10721); test: cell-based; design: PathHunter eXpress functional assay (DiscoverX tkMAX), inhibition of reference ligand response; conditions: read-out: % Inhibition of reference binding (Table 3)
# TrkC-P75 = target: T6, TrkC-P75 (Homo sapiens, UniProt Q16288); test: cell-based; design: PathHunter eXpress functional assay (DiscoverX tkMAX), inhibition of reference ligand response; conditions: read-out: % Inhibition of reference binding (Table 3)
# T6 construct: gene NTRK3
# c-Ret-GFRα2 = c-Ret-GFRα2 (Homo sapiens, UniProt P07949); test: cell-based; design: PathHunter eXpress functional assay (DiscoverX tkMAX), inhibition of reference ligand response; conditions: read-out: % Inhibition of reference binding (Table 3)
# TrkA-P75 = target: T7, TrkA-P75 (Homo sapiens, UniProt P04629); test: cell-based; design: PathHunter eXpress functional assay (DiscoverX tkMAX), inhibition of reference ligand response; conditions: read-out: % Inhibition of reference binding (Table 3)
# T7 construct: gene NTRK1
# PRLR-JAK2 = PRLR-JAK2 (Homo sapiens, UniProt P16471); test: cell-based; design: PathHunter eXpress functional assay (DiscoverX tkMAX), inhibition of reference ligand response; conditions: read-out: % Inhibition of reference binding (Table 3)
compound,measurement,setting,value
"O=C(Nc1cc(Cl)ccc1O)c1cccc(S(=O)(=O)N2CCCCC2)c1 [compound 66, BDT001]",inhibition at 10 µM,[1],64%
same,IC50,[2],11 µM
same,inhibition at 10 µM,FGFR3 kinase,33%
same,inhibition at 10 µM,MAPKAPK2,6%
same,inhibition at 10 µM,PDK1,3%
same,inhibition at 10 µM,SIK,-6%
same,inhibition at 10 µM,ErbB2-ErbB3,13.6%
same,inhibition at 10 µM,DDR1,-0.7%
same,inhibition at 10 µM,EphA5,5%
same,inhibition at 10 µM,EphA7,4.3%
same,inhibition at 10 µM,EphB2,1.4%
same,inhibition at 10 µM,EphB3,2.8%
same,inhibition at 10 µM,EphB4,22.7%
same,inhibition at 10 µM,ErbB1,8.7%
same,inhibition at 10 µM,ErbB4,-0.1%
same,inhibition at 10 µM,FLT4,16.8%
same,inhibition at 10 µM,IGF1R,10.1%
same,inhibition at 10 µM,INSRb,10%
same,inhibition at 10 µM,KDR,-3.1%
same,inhibition at 10 µM,PDGFRa,2.2%
same,inhibition at 10 µM,PDGFRb,4.2%
same,inhibition at 10 µM,c-KIT,7.8%
same,inhibition at 10 µM,TrkC-P75,0.6%
same,inhibition at 10 µM,c-Ret-GFRα2,-4.1%
same,inhibition at 10 µM,TrkA-P75,13.7%
same,inhibition at 10 µM,PRLR-JAK2,1.9%
